The text below walks through data of EP2289528A1, “Novel nutraceutical compositions containing black pepper or its constituents improving mental performance” (DSM IP Assets B.V., priority 2009, dated 2011).

SMILES strings stand for the structures. Where two headings read alike, the source gives them in different places.

The subject of experiment [1] is GluR1. Put plainly: Hippocampal slice cultures, immunohistochemistry of synaptic marker GluR1. In kind it is cell-based, Wistar rats. The conditions noted are these: relative activation vs sister cultures treated with buffer; 15 min treatment after 48 h in culture. The procedure:
(§1) Seven-day-old Wistar rats were decapitated using a guillotine. […] Transversal hippocampal slices (400 µm) were prepared using a vibrating blade microtome (VT1200S; Leica Microsystems (Schweiz) AG, Heerbrugg, Switzerland) in the same buffer. Hippocampal slices were individually placed on a membrane insert (Millicell Culture Plate Inserts, 0.4 µm) and cultivated at 35 °C, 5% CO2, 95% humidity in a medium containing a 1:1 mixture of BME and MEM (both from Invitrogen) containing 25% heat-inactivated horse serum, 1x GlutaMAX, 1x Penicillin/Streptomycin, 0.6% glucose and 1mM Kynurenic acid (Stoppini, Buchs and Muller (1991), J. Neurosci. Methods, 37(2), 173-82). After 48 h in culture, synaptic NMDA receptors were activated by addition of black pepper extract or its constituents for 15 min in 140 mM NaCl, 5 mM KCl, 1.3 mM CaCl2, 25 mM HEPES (pH 7.3), 33 mM D-glucose and 0.02 mM bicuculline methiodide. […] After the treatments, sections were washed and fixed for immunohistochemistry. Markers of enhanced synaptic activity, normally associated with long-term potentiation, representing an ex vivo model of learning and memory were quantitated (see Table 2, below). Table 2. […] The activation of any of these markers (or a combination thereof) is observed in classical LTP experiments.

Experiment [2] deals with T1, human glycine transporter 1b cDNA (GlyT1) (Homo sapiens, UniProt P48067).
T1 construct: expressed in transfected cells
T1 sequence (P48067 1-652 isoform P48067-3): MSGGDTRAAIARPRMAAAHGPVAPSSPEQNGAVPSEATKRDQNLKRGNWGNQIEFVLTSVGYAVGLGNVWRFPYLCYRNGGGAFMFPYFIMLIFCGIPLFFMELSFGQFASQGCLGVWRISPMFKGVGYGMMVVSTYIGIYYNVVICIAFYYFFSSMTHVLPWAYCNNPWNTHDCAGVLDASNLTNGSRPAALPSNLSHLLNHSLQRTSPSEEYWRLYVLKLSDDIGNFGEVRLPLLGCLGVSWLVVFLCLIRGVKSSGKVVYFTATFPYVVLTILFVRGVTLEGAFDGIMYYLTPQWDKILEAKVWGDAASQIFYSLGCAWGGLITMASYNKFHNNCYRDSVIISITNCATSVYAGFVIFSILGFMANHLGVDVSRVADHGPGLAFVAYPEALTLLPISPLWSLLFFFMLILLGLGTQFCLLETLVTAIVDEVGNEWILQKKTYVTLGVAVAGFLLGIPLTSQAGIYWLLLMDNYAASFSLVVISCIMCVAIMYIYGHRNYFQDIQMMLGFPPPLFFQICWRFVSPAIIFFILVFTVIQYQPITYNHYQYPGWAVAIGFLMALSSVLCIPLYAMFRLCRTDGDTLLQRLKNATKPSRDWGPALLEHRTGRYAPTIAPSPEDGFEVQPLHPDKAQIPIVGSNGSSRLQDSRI
Put plainly: Inhibition of glycine transporter 1 in a cellular assay ([3H] glycine uptake into CHO cells). In kind it is cell-based. The procedure:
Cells were harvested by trypsinisation one day prior to the assay and were seeded in the above mentioned medium. Immediately prior to the assay, the medium was replaced by uptake buffer containing 150 mM NaCl, 1 mM CaCl2, 2.5 mM KCl, 2.5 mM MgCl2, 10 mM Glucose and 10 mM N-2-hydroxyethylpiperazine-N'-2-ethanesulfonic acid ("Hepes" buffer). […] Louis, USA) were used as known inhibitors of GlyT1. […] Data is shown as mean ± s.e.m., where the IC50 is stated as µM for pure compounds and as µg/mLfor extracts.

In experiment [3] the test system is pCREB. Put plainly: Hippocampal slice cultures, immunohistochemistry of synaptic marker pCREB. Also: key: ++++ shows a qualitative maximal activation; -- shows a reduced activation; ++ signifies a half-maximum activation; ± demonstrated no change in immunoreactivity. In kind it is cell-based, Wistar rats. To be noted: relative activation vs sister cultures treated with buffer; 15 min treatment after 48 h in culture. On the procedure: as §1, with “experiments. TABLE 2 […]” for “experiments.”
Experiment [4] deals with pMAPK. Put plainly: Hippocampal slice cultures, immunohistochemistry of synaptic marker pMAPK. Also: key: ++++ shows a qualitative maximal activation; -- shows a reduced activation; ++ signifies a half-maximum activation; ± demonstrated no change in immunoreactivity. In kind it is cell-based, Wistar rats. To be noted: relative activation vs sister cultures treated with buffer; 15 min treatment after 48 h in culture. The procedure: as §1, with “experiments. TABLE 2 […]” for “experiments.”
The mark [5] stands for this setting: pure compounds, CHO cells expressing GlyT1, 60 nM [3H] glycine, 30 minutes at room temperature.

With `O=C(/C=C/C=C/c1ccc2c(c1)OCO2)N1CCCCC1` [Piperine], the GluR1 in experiment [1] was 119-1742%. The same compound had a half-inhibitory concentration (IC50) in experiment [2] of 48.7 µM. For the same compound, in experiment [3], the pCREB entry is “±”. Further, the pMAPK result in experiment [4] was “±”.

For the compound `CNCC(=O)O` [Sarcosine, reference compound], the pCREB result in experiment [3] is recorded as “±”. Moreover, the pMAPK entry in experiment [4] is “±”.

As to `CC(C)CNC(=O)/C=C/C=C/c1ccc2c(c1)OCO2` [Piperlonguminine], the “IC50 for tritiated glycine uptake” value in experiment [2] (setting [5]) is “inactive”.

Turning to `NCC(=O)O` [Glycine, reference compound], the pCREB entry in experiment [3] is given as “++”. Besides, the pMAPK result in experiment [4] is on record as “++”.

Regarding `CN(CC[C@@H](Oc1ccc(C(F)(F)F)cc1)c1ccccc1)CC(=O)O` [ORG24598, reference compound], the IC50 in experiment [2] (read-out: IC50 for tritiated glycine uptake, pure compounds, CHO cells expressing GlyT1, 60 nM [3H] glycine, 30 minutes at room temperature) stood at 0.02 µM.

Turning to `COc1cc(/C=C/C(=O)N2CCC=CC2=O)cc(OC)c1OC` [Piperlongumine], in experiment [1], the GluR1 is reported as 412-931%. Also, the “IC50 for tritiated glycine uptake” value in experiment [2] (setting [5]) is “inactive”. Further, the pCREB entry in experiment [3] was “±”. The pMAPK result in experiment [4] is recorded as “±”.

The term IC50 denotes the concentration that gives 50% inhibition.
